Experimental data taken from article PMC6287197, “Eukaryotic Cell Toxicity and HSA Binding of [Ru(Me4phen)(bb7)]^2+ and the Effect of Encapsulation in Cucurbit[10]uril” (Frontiers in Chemistry, 2018).
Where two headings read alike, the source gives them in different places.

Legend:
[1] = molecular target: T1, human serum albumin (HSA) (Homo sapiens, UniProt P02768); assay: HSA binding by tryptophan fluorescence quenching; details: for Kapp (apparent HSA binding constant) / binding number n for HSA binding: [Ru complex]/[HSA] ratio 0 to 2.4, 0.1 M sodium phosphate pH 7.4
T1 construct: purchased Sigma-Aldrich
T1 sequence (P02768 25-609): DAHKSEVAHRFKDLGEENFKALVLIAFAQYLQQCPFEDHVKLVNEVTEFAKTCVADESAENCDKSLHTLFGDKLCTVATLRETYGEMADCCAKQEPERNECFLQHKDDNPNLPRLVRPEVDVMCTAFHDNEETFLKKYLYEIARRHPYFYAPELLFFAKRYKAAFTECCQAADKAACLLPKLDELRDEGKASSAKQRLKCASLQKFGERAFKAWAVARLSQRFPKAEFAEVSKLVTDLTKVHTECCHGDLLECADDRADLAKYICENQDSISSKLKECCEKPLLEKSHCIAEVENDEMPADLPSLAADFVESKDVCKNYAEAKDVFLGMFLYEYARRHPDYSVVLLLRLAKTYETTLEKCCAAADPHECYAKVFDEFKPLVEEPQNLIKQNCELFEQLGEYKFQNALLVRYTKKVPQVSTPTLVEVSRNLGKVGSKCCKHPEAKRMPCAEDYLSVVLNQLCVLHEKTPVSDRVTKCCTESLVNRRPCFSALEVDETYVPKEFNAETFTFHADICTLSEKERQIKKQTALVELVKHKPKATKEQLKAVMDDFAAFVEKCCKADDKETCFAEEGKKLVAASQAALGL
Protocol: All solutions used in the protein binding studies were dissolved in a 0.1 M sodium phosphate buffer (pH = 7.4). Protein solutions (5 μM) were titrated with the ruthenium complexes from 2 mM stock solutions, from a metal complex/protein ratio of 0.0 to 8.0. […] All experiments were carried out in triplicate, with results presented as mean and standard deviation.
The static quenching via binding of the ruthenium complexes to HSA can be represented as: nRu+HSA→nRu⋯ HSA where nRu…HSA denotes the quenched ruthenium complex/HSA species. A double-logarithm equation of log10[(F0-F)/F] vs. log10[Ru] can then be used to express the equilibrium between the free and bound ruthenium(II) complex to determine the apparent binding constant (Kapp) and the binding number (n) (Krause-Heuer et al., [2012]). log [F0-F/F]=log10Kapp+nlog10[Ru]
It was not possible to determine a single apparent HSA binding constant, as a linear relationship was not observed over the entire concentration range of added ruthenium complex in the plot of log10[(F0 – F)/F] vs. log10[Ru]. However, two distinct linear sections could be found in the analysis of the double logarithm, corresponding to ruthenium complex to HSA ratios of (a) 0 to 2.4 and (b) 2.4 to 8. As previously observed (Li et al., [2013b]), the two binding ratio regions represent an initial 1:1 binding at low ruthenium complex concentration (ratios 0–2.4), and then upon addition of further ruthenium complex, a region (2.4–8) where multiple ruthenium complexes (≥ 2:1) are bound to HSA. The higher affinity 1:1 HSA binding constant Kapp and the binding numbers n for the ruthenium complexes determined at low ratios of added ruthenium complex are summarized in Table 2.

[2] = test system: Hep-G2 (human hepatocellular carcinoma) cell line; assay: MTT toxicity assay against Hep-G2 cells; type: cell-based
Protocol: (§1) BHK (baby hamster kidney); Caco-2 (heterogeneous human epithelial colorectal adenocarcinoma); and Hep-G2 (liver carcinoma). All cell lines were cultured in 75 mL culture flasks in DMEM culture media (Dulbecco's Modified Eagle's Medium, Gibco, Thermo Fisher, UK) supplemented with 10% fetal bovine serum (Gibco, Thermo Fisher, UK), 1% MEM Non-Essential Amino Acid (Sigma, UK) and 1% penicillin-streptomycin (Sigma) at 37°C in an atmosphere of 5% humidified CO2. Cells used in the study were in the logarithmic growth phase, and unless stated were grown to 70% confluence, and then trypsinized with 0.5% trypsin-EDTA (Gibco, Canada) for detachment and use in the assays. […] The cells were cultured in 96-well microtiter plates containing the respective media to a cell density of 3,000 per well at 37°C in an atmosphere of air containing 5% CO2. Cell viability was assessed after continuous exposure to various concentrations of drugs (ranging from 0.5 to 400 μM) for 24 and 48 h. Cisplatin served as a treatment evaluation standard. […] The amount of MTT reduced to formazan within the cells was quantified by measuring the absorbance at λ = 570 nm using a Fluostar Galaxy Microplate Reader. The average values presented are based on at least three independent experiments. The IC50 values were determined using GraphPad Prism 7.0 (GraphPad Software, San Diego, USA).

[3] = test system: BHK (baby hamster kidney) cell line; assay: MTT toxicity assay against BHK cells; type: cell-based
Protocol: as §1

[4] = test system: Caco-2 (human epithelial colorectal adenocarcinoma) cell line; assay: MTT toxicity assay against Caco-2 cells; type: cell-based
Protocol: as §1, with “h.” for “h. Cisplatin served as a treatment evaluation standard.”

[5] = test system: eukaryotic cells (BHK, Hep-G2, Caco-2); assay: Toxicity to the panel of eukaryotic cell lines (comparisons); type: cell-based
Protocol: as §1

[6] = test system: Gram-positive and Gram-negative bacteria; details: 2018, cited from earlier work; for MIC: Gram-positive and Gram-negative bacteria, ref Gorle et al., 2015, Sun et al.
[7] = parameters: method as in Sun et al., 2018; details: ref Sun et al., 2018; cited from earlier work
BHK cells = assay: Confocal microscopy of cellular accumulation in BHK cells; type: cell-based, hamster
Protocol: The trypsinized BHK cells were seeded on sterile, poly L-lysine coated, coverslips in a 24-well plate. The ruthenium complex was applied to the cells in growth media to make the desired concentration (25 μM) and incubated at 37°C with 5% CO2 for 1 h. Following the incubation, 100 nM Mitotracker® Green FM (Invitrogen) was added for mitochondrial staining. Staining was carried out in DMEM medium under standard cultivation conditions as per the manufacturer's instructions. Following staining, the coverslips were gently rinsed with phosphate buffer solution (PBS, pH = 7.1) prior to confocal laser scanning microscopy.
The cellular accumulation of the ruthenium complex was determined using a laser scanning confocal microscope (FV3000, Olympus). Samples were viewed under 60× silicone immersion using the following excitation (λex) and emission (λem) wavelengths. Ruthenium complex (λex = 450 nm, λem = 630 nm) and Mitotracker Green FM (λex = 490 nm, λem = 516 nm) were excited using a blue argon laser (λex = 488 nm), and emissions were collected at λ = 600–650 nm for the ruthenium complex and λ = 500–550 nm for Mitotracker Green. […] The luminescence intensity of cis-α-[Ru(Me4phen)(bb7)]^2+ inside the BHK cells was quantified using the surface rendering function of Imaris 9.2.1 software, and the data analyzed for statistical difference using the Wilcoxon-test and t-test methods.

[8] = parameters: method as in Li et al., 2017; details: mice, ref Li et al., 2017; cited from earlier work
[9] = molecular target: T1, human serum albumin (HSA); parameters: method as in Li et al., 2013b; details: ref Li et al., 2013b; cited from earlier work
[10] = 24-h incubation, read-out: IC50 Hep-G2 24 h
[11] = 48-h incubation, read-out: IC50 Hep-G2 48 h
[12] = 24-h incubation, read-out: IC50 BHK 24 h
[13] = 48-h incubation, read-out: IC50 BHK 48 h
[14] = 24-h incubation, read-out: IC50 Caco-2 24 h
[15] = 48-h incubation, read-out: IC50 Caco-2 48 h

| Compound | Kapp (apparent HSA binding constant) [1] | binding number n for HSA binding [1] | IC50 [2, 10] | IC50 [2, 11] | IC50 [3, 12] | IC50 [3, 13] | IC50 [4, 14] | IC50 [4, 15] | log P [7] | further results |
| --- | --- | --- | --- | --- | --- | --- | --- | --- | --- | --- |
| Cc1ccnc(-c2cc(CCCCCCCc3ccnc(-c4cc(C)ccn4)c3)ccn2)c1.[Ru+2].c1cnc2c(c1)ccc1cccnc12 [α-phen-7, cis-α-[Ru(phen)(bb7)]^2+] | 0.10 ± 0.00 × 10^5 (M)^−1 | 0.80 | 319 ± 26 µM | 312 ± 15 µM | > 400 µM | 250 ± 42 µM | > 400 µM | 219 ± 43 µM |  |  |
| N.N.[Cl][Pt][Cl] [Cisplatin, reference compound] |  |  | 314 ± 8 µM | 12 ± 3 µM | > 400 µM | 146 ± 8 µM |  |  |  |  |
| Cc1ccnc(-c2cc(CCCCCCCCCCCCc3ccnc(-c4cc(C)ccn4)c3)ccn2)c1.[Ru+2].c1cnc2c(c1)ccc1cccnc12 [α-phen-12, cis-α-[Ru(phen)(bb12)]^2+] | 0.43 ± 0.17 × 10^5 (M)^−1 | 0.95 | 94 ± 13 µM | 19 ± 3 µM | 92 ± 26 µM | 85 ± 16 µM | 227 ± 22 µM | 177 ± 17 µM | −0.9 | fold more toxic than α-Me4phen-7 ([5]; eukaryotic cells, from IC50 values): 2–5 fold; MIC [6]: 1 to 10 µM |
| Cc1cnc2c(ccc3c(C)c(C)cnc32)c1C.Cc1cnc2c(ccc3c(C)c(C)cnc32)c1C.Cc1cnc2c(ccc3c(C)c(C)cnc32)c1C.[Ru+2] [(Me4phen)3, [Ru(Me4phen)3]^2+, reference compound] | 0.12 ± 0.03 × 10^5 (M)^−1 | 0.81 | 253 ± 60 µM | 72 ± 31 µM | 157 ± 25 µM | 111 ± 23 µM | 220 ± 43 µM | 265 ± 13 µM |  |  |
| cis-α-[Ru(Me2phen)(bb7)]^2+ [α-Me2phen-7] | 0.29 ± 0.13 × 10^5 (M)^−1 | 0.91 | 358 ± 18 µM | 151 ± 30 µM | > 400 µM | 250 ± 46 µM | > 400 µM | > 400 µM |  |  |
| Cc1ccnc(-c2cc(CCCCCCCc3ccnc(-c4cc(C)ccn4)c3)ccn2)c1.Cc1cnc2c(ccc3c(C)c(C)cnc32)c1C.[Ru+2] [α-Me4phen-7, cis-α-[Ru(Me4phen)(bb7)]^2+] | 4.6 ± 0.90 × 10^5 (M)^−1 | 1.14 | 162 ± 14 µM | 142 ± 8 µM | > 400 µM | 168 ± 5 µM | > 400 µM | > 400 µM | −1.33 | fold decrease in toxicity by Q[10]-encapsulation ([5]; based on 48-h incubation toxicity to BHK and Hep-G2 cells): 2–3 fold; fold less toxic to eukaryotic cells than α-phen-12 ([5]; from IC50 values): 2–5 fold; fold higher HSA binding affinity on Q[10]-encapsulation ([1]; Q[10]-encapsulated vs free): 3–4 fold; fold tighter HSA binding than α-phen-12 and α-Me2phen-7 ([1]; from Kapp): approximately 10 fold; level of cellular accumulation, free vs Q[10]-encapsulated (luminescence intensity per cell) (BHK cells; BHK cells, […] μM, 1-h incubation): no difference; nuclear localization in BHK cells (BHK cells; preliminary confocal microscopy): did not localize in the nucleus; MIC [6]: 1 to 10 µM; fold lower antimicrobial activity to Gram-negative bacteria than Rubb12 ([6]; ref Sun et al.): ≈ 2 fold |
| Cc1ccnc(-c2cc(CCCCCCCCCCCCc3ccnc(-c4cc(C)ccn4)c3)ccn2)c1.[Ru+2].[Ru+2].c1cnc2c(c1)ccc1cccnc12.c1cnc2c(c1)ccc1cccnc12.c1cnc2c(c1)ccc1cccnc12.c1cnc2c(c1)ccc1cccnc12 [Rubb12, [{Ru(phen)2}2{μ-bb12}]^4+, reference compound] |  |  | 55 ± 12 µM | 15 ± 5 µM | 44 ± 9 µM | 41 ± 7 µM | 10 ± 1 µM | 8 ± 3 µM |  | amount of complex in serum after intravenous injection [8]: decreased very rapidly; Kapp (HSA binding), previously determined [9]: 470000 M⁻¹; effect of Q[10]-binding on HSA binding affinity [9]: decreased the affinity |
| Cc1ccnc(-c2cc(CCCCCCCc3ccnc(-c4cc(C)ccn4)c3)ccn2)c1.O=[N+]([O-])c1cc2cccnc2c2ncccc12.[Ru+2] [α-NO2phen-7, cis-α-[Ru(NO2phen)(bb7)]^2+] | 23.5 ± 4.9 × 10^5 (M)^−1 | 1.27 | 141 ± 29 µM | 99 ± 29 µM | > 400 µM | > 400 µM | 121 ± 18 µM | 126 ± 6 µM | −1.58 |  |
